Experiment: Sumatriptan pharmacokinetics after oral gavage in cocoa butter with or without DDM
Assay type: in vivo, beagle dogs
Details: 25 mg in cocoa butter with 1% DDM vs no-DDM control, dog, 0-180 min
Protocol: The plot depicts serum concentrations of sumatriptan in a canine at zero through 180 min. following oral delivery (by gavage) of 25 mg sumatriptan in 1.0% DDM in a non-aqueous solution comprising cocoa butter. The solid circles represent plasma sumatriptan concentrations for doses not containing DDM (the control) and the solid squares show plasma sumatriptan concentrations for the sumatriptan doses containing DDM.
Sumatriptan, 2.5 g, was dissolved in 100 mL of cocoa butter at 45 deg. […] (in the liquid state) resulting in a solution having a sumatriptan concentration of 25 mg/mL. The solution was divided into two equal 50 mL portions. To one was added 500 mg DDM. Both solutions were kept at 45 degrees C. until the DDM is seen to have completely dissolved upon visual inspection yielding a 1% DDM solution in cocoa butter. The solutions were then cooled to about 4-10 degrees C. to allow the cocoa butter to solidify. One mL portions of the solidified cocoa butter-sumatriptan-DDM solution and one mL portions of the cocoa butter-sumatriptan (no DDM) control were formed into spherical balls and administered to beagle dogs by oral gavage. Blood samples were collected at timed intervals and plasma sumatriptan concentrations measured using a standard clinical assay.

In the case of CNS(=O)(=O)Cc1ccc2[nH]cc(CCN(C)C)c2c1 [sumatriptan], the “increase in oral absorption based upon the relative AUC's” value is reported as ~19%.

From patent publication US20130224300A1, “COMPOSITIONS AND METHODS THEREOF FOR ORAL ADMINISTRATION OF DRUGS” (priority 2011, published 2013)
